Where two headings read alike, the source gives them in different places.

In this series the test system is second instar larvae of Spodoptera exigua. The series is described as follows: Indoor toxicity by Potter spray method; co-toxicity coefficient method of Sun Y. P. Format: in vivo. To be noted: median lethal concentration. The method, then: The method for determining the indoor toxicity of the pesticides involved in the present invention to the second instar larvae of Spodoptera exigua is as follows:
The test method is the Potter spray method: a Potter spray tower is used to spray the vegetable leaves on both sides with 1 mL of the amount of the pesticides treating the leaf on each side, and the sedimentation is performed for 30 seconds. There are 3 replicates for each treatment for 30 larvae (2nd instar larvae of Spodoptera exigua), and a treatment with the clean water is used as the control. The petri dish after sprayed is placed in a constant-temperature incubator (temperature being 25° C., relative humidity being 85%). The death of the testing pests is investigated and recorded after treatment for 24, 48, and 72 hours. During the treatment, the petri dish is kept moist, and fresh Cantonese cabbage leaves are added timely as pest's food.
The formula (1) is used to calculate the mortality of pests, the Abbott formula is used to calculate the corrected mortality, and EXCEL is used to analyze the virulence regression results. Formula (2) is the calculation formula of Abbott. Mortality (%)=Number of dead insects/Number of testing worms before experiment*100 (1) […]

On to `CN[C@@H]1C[C@H]2O[C@@](C)([C@@H]1OC)n1c3ccccc3c3c4c(c5c6ccccc6n2c5c31)C(=O)NC4` [10:0, Staurosporine], for which the LC50 – broadly, the concentration that kills 50% of the test population – (Spodoptera exigua, mass ratio Staurosporine:Emamectin benzoate, read-out: LC50) came out at 40.3 µg/mL.

Turning to Emamectin benzoate [0:10], the LC50 amounted to 0.14 µg/mL.

For the origin of these results see US12727600B2, “Staurosporine⋅emamectin benzoate suspending agent and preparation method and application thereof” (PLANT PROTECTION RESEARCH INSTITUTE OF GUANGDONG ACADEMY OF …, priority 2020, dated 2026).
